{
  "source": "paper PMC3045100",
  "about": "“Cell-Penetrating Penta-Peptides (CPP5s): Measurement of Cell Entry and Protein-Transduction Activity” (Pharmaceuticals, 2010)",
  "key": {"[1]": {"molecular_target": "T1, Bax (Homo sapiens, UniProt Q07812)", "T1 construct": "expressed in transfected cells; host or cells: HeLa cells", "T1 sequence (Q07812 whole entry, species assumed)": "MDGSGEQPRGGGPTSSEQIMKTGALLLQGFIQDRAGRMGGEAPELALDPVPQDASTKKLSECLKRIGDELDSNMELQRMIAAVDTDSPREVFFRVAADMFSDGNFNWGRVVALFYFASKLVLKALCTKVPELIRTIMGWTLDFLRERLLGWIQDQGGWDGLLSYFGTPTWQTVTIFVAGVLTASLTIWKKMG", "assay": "Inhibition of Bax-induced apoptosis after pEGFP-Bax transfection", "type": "cell-based", "details": "200 μM peptide 3 h before pEGFP-Bax plasmid transfection, apoptosis assayed 24 h after transfection, triplicate samples, P < 0.01", "procedure": "(§1) Figure 3 Protection of cells from apoptosis by VPTLK. a-d. Proteoglycan is not required for VPTLK cell entry. Microscopic analysis of cell entry of Fam-VPTLK in Chinese Hamster Ovary (CHO) A745 cells lacking proteoglycans in the plasma membrane (a) and CHO K1 cells that express proteoglycans (b). CHO A745 and K1 cells were incubated with Fam-VPTLK (200 μM) for 3 h at 37 °C. […] Apoptosis was determined by using Hoechst dye nuclear staining. Each bar represents the mean of triplicate samples and standard error, and statistical significance was determined by an unpaired student t test; “ns”: not significant, *P < 0.05, and **P < 0.01. e. […] Jurkat cells were pre-incubated with VPTLK 200 μM for 3 h prior to STS treatment (100 nM, 3 or 6 h). Apoptosis was determined by Hoechst dye nuclear staining. Each bar represents the mean of triplicate samples and standard error, and statistical significance was determined by an unpaired student t test: **P < 0.01. f. […] Apoptosis was determined by Hoechst dye nuclear staining. […]\n(§2) To induce Bax-mediated apoptosis in HeLa cells, cells were transfected with pEGFP-Bax (1 µg) and apoptosis was determined 24 h after the transfection. […] To detect apoptosis, cells were stained with Hoechst 33258 dye, and the numbers of cells with apoptotic nuclei were counted using fluorescence microscopy. Three-hundred cells were analyzed in triplicate samples. […]"}, "[2]": {"system": "HeLa cells", "assay": "Protection from etoposide-induced apoptosis (Hoechst nuclear staining)", "type": "cell-based", "details": "200 μM peptide 3 h pretreatment, etoposide 10 μM, 24 h, Hoechst dye nuclear staining, triplicate samples, P < 0.01", "procedure": "as §1, §2"}, "[3]": {"system": "Primary cultured mouse embryonic fibroblast (MEF) cells", "assay": "Cytotoxicity (apoptosis, Hoechst nuclear staining) of CPP5 and TAT", "type": "cell-based", "procedure": "List of cell-penetrating penta-peptides (CPP5s). […] Peptide sequences are color-coded to show the constant amphipathic amino acid arrangement in each CPP5. […] Fam was labeled on the N-terminus of all peptides examined. Cells were analyzed by FACS and/or microscopy. The activity of each peptide is shown as a percentage of the activity of KLPVM. Each value represents the mean of triplicate samples. Cell entry of some peptides was confirmed by microscopy only, and these peptides are indicated with a '+' without a percentage value. For cytoprotective activity (right column), the information is based on previous studies and the activity was determined by the protection of cells from Bax overexpression and other apoptotic stimuli such as etoposide treatment. b to e. Cell entry of Fam-labeled […], and poly-arginine (R8). […] Comparison of the cytotoxicity of CPP5 and TAT. Primary cultured mouse embryonic fibroblast (MEF) cells were treated with various concentrations of peptides for 24 h as indicated. Then, apoptosis was analyzed as described in Experimental Procedures. Each bar represents the mean of triplicate samples and standard error."}, "[4]": {"system": "CHO A745 cells", "assay": "Protection from staurosporine-induced apoptosis (Hoechst nuclear staining)", "type": "cell-based, Chinese hamster", "details": "VPTLK 3 h pre-incubation, 100 nM STS for 3 and 6 h, Hoechst dye nuclear staining, triplicate samples", "procedure": "as §1, §2"}, "[5]": {"system": "CHO K1 cells", "assay": "Protection from staurosporine-induced apoptosis (Hoechst nuclear staining)", "type": "cell-based, Chinese hamster", "details": "VPTLK 3 h pre-incubation, 100 nM STS for 3 and 6 h, Hoechst dye nuclear staining, triplicate samples", "procedure": "as §1, §2"}},
  "data": [
    {"substance": "VPTLK", "values": [
      {"measurement": "Inhibition of Bax-induced apoptosis, HeLa", "setting": "[1]", "result": "inhibited Bax-induced apoptosis in HeLa cells"},
      {"measurement": "Protection from etoposide-induced apoptosis, HeLa", "setting": "[2]", "result": "protected HeLa cells from etoposide-induced apoptosis"},
      {"measurement": "Cytotoxic effect at 1.6 mM in the cell culture medium", "setting": "[3]", "result": "did not show significant cytotoxic effects"},
      {"measurement": "Protection from staurosporine treatment, CHO A745", "setting": "[4]", "result": "protected both cell lines"},
      {"measurement": "Protection from staurosporine treatment, CHO K1", "setting": "[5]", "result": "protected both cell lines"}
    ]}
  ]
}
